Experimental data from patent publication US9700637B2, “Reaction-based fluorescent probes for detecting zinc” (Massachusetts Institute of Technology, priority 2013, dated 2017).
Values joined by “and” are separate entries in the source; they are usually repeats but may differ in a detail not shown here. Identical values can stand only once.

How the values were obtained:
HeLa cells [1] = assay: Live cell fluorescence imaging: localization, co-localization and uptake; type: cell-based; conditions: fluorescence microscopy, live HeLa cells (Table 1)
Experimental: FIG. 6 depicts live cell imaging of HeLa cells. 500 nM mitotracker Red was bath-applied along with 1 μM DA-ZP1-TPP for 30 min at 37° C. and 5% CO2. After exposure to 25 μM 1:2 zinc:pyrithione, fluorescent images were acquired and the co-localization of the two sensors was assessed. The calculated Pearson's correlation coefficient (r) was r=0.581±0.097 (n=9), which represents the average of 9 ROIs over three independent plates.
FIG. 14 depicts live cell imaging of HeLa cells. 1 μM Lysotracker Red was bath-applied along with 2 μM ZP1-TPP. The calculated Pearson's correlation coefficient (r) was r=0.45±0.15, which represents the average of 9 ROIs over three independent plates.
(§1) FIG. 24 depicts fluorescence images of live HeLa cells. HeLa cells were pretreated with a 1 μM solution of DA-ZP1-TPP in dye- and serum-free medium for 30 min (37° C., 5% CO2). […] The signal from MitoTracker Red (c) correlates well with the signal from the zinc-bound sensor (d). Pearson's r=0.64±0.1 (n=18).
FIG. 27 depicts deconvoluted fluorescence microscopy images of live HeLa cells pretreated with ZP1-R9 (5 μM) or DA-ZP1-R9 (2.5 μM) and the indicated organelle stain. Top, ZP1-R9: (a) Differential interference contrast (DIC) image, (b) signal from ZP1-R9, (c) signal from LysoTracker Red, (d) overlay of (b) and (c). Pearson's r=0.42±0.16 (n=8). Bottom, DA-ZP1-R9: (e) DIC, (f) signal from DA-ZP1-R9 after treatment with 25 μM ZnPT, (g) signal from Hoechst 33258, (h) overlay of (f) and (g). Scale bar=25 μm.
FIG. 29 depicts deconvoluted fluorescence microscopy images of live HeLa cells pretreated with 1 μM DA-ZP1-R9 and 100 nM Dextran Red. (a) Differential interference contrast (DIC), (b) signal from DA-ZP1-R9 after addition of 25 μM ZnPT (c) signal from Dextran Red, (d) overlay of (b) and (c). Pearson's r=0.55±0.12 (n=11). Scale bar=25 μm.
FIG. 31 depicts deconvoluted fluorescence microscopy images of ZP1-(Fxr)3 and DA-ZP1-r(Fxr)3 in live HeLa cells. Top, cells pretreated with medium containing 2.5 μM of ZP1-(Fxr)3: (a) Differential interference contrast (DIC) image, (b) signal from ZP1-(Fxr)3, (c) signal from Dextran Red, (d) overlay of (b) and (c). Pearson's r=0.71±0.07. Bottom, cells pretreated with 1 μM DA-ZP1-r(Fxr)3: (e) DIC, (f) signal from DA-ZP1-r(Fx)3 after treatment with 25 μM ZnPT, (g) signal from MitoTracker Red, (h) overlay of (f) and (g). Pearson's r=0.41±0.09. Scale bar=25 μm.
FIG. 33 depicts deconvoluted fluorescence microscopy images of DCF-r(Fxr)3 and DA-DCF-r(Fxr)3 in live HeLa cells. Top, cells pretreated with 5 μM DCF-r(Fxr)3 and 500 nM MitoTracker Red for 30 min. (a) differential contrast image (DIC), (b) signal from DCF-r(Fxr)3, (c) signal from MitoTracker Red. Bottom, cells pretreated with 5 μM DA-DCF-r(Fxr)3 and 500 nM MitoTracker Red for 30 min. (d) DIC, (e) signal from DCF-r(Fxr)3, (f) signal from MitoTracker Red. The global Pearson's r=0.57±0.16 (n=37). Cells with high levels of DA-DCF-r(Fxr)3 (e, red outline) have a higher Pearson's r=0.83±0.08 (n=10). Scale bar=25 μm.
We used HeLa cells as a model system to evaluate the ability of DA-ZP1-TPP to target mitochondria and respond to changes in intracellular zinc levels. […] Over a two-hour period, the fluorescence intensity from the sensor remained constant, implying that the acetylated form is stable against intracellular esterases (FIG. 24e). […] Addition of 100 μM TPEN attenuated the fluorescence signal by ˜2.4-fold (FIG. 24f). […]

HeLa cells [2] = assay: Live cell fluorescence imaging: response to intracellular zinc (ZnPT/TPEN) and stability in cellulo; type: cell-based
Experimental: FIG. 5 depicts live cell imaging of HeLa cells that were bathed in a 1 μM solution of DA-ZP1-TPP in dye and serum free DMEM media for 30 min at 37° C. and 5% CO2. […] There was minimal fluorescent signal from DA-ZP1-TPP, consistent with the quenched fluorescent form of the sensor (top, right).
as §1, with “(n=18). […]” for “(n=18).”
We used HeLa cells as a model system to evaluate the ability of DA-ZP1-TPP to target mitochondria and respond to changes in intracellular zinc levels. Live HeLa cells were pretreated with medium containing 1 μM DA-ZP1-TPP and 250 nM MitoTracker Red for 30 min (37° C., 5% CO2) prior to imaging (FIG. 24). […] Over a two-hour period, the fluorescence intensity from the sensor remained constant, implying that the acetylated form is stable against intracellular esterases (FIG. 24e). […] Addition of 100 μM TPEN attenuated the fluorescence signal by ˜2.4-fold (FIG. 24f). […] We anticipate that this strategy will be applicable to related families of fluorophores. […]

[3] = Octanol/aqueous buffer partition coefficient (modified shake-flask); type: physicochemical; conditions: octanol/water, buffered at pH 7 with 10 mM Tris
From the text: To understand better the limitations of TPP in directing fluorophores to mitochondria, we prepared two additional TPP-derivatives, one based on 6-carboxyfluorescein (FL-TPP) and one on coumarin 343 (C343-TPP). […] To test this hypothesis, we conducted live cell fluorescence imaging experiments with FL-TPP. […] Not only did FL-TPP fail to accumulate in mitochondria, it was cell-impermeable under our imaging conditions. In contrast, the cationic C343-TPP strongly colocalized with MitoTracker Red in live HeLa cells (Pearson's r=0.72±0.02). To quantify the effect of hydrophobicity in mitochondrial-targeting, we measured the octanol/aqueous buffer partition coefficient (log P) for our TPP constructs and two MitoTracker dyes. We then tabulated the log P, charge of the predominate species in solution at physiological pH, and cellular localization for each dye (Table 1). […] Along with cationic charge, a minimum level of lipophilicity must be reached in order to evade endo/lysosomal sequestration and enable effective mitochondrial targeting.

SMILES	Localization (HeLa cells [1])	response to changing intracellular zinc levels (HeLa cells [2]; live HeLa cells)	log P [3]	increase in fluorescence intensity on ZnPT (HeLa cells [2]; live HeLa, 1 μM probe, 50 μM ZnPT)	period over which signal intensity was stable in cellulo (HeLa cells [2]; live HeLa, 1 μM, no added zinc)	attenuation of fluorescence signal by TPEN (HeLa cells [2]; live HeLa, 100 μM TPEN after 50 μM ZnPT)
O=C(NCC[P+](c1ccccc1)(c1ccccc1)c1ccccc1)c1ccc2c(c1)C1(OC2=O)c2cc(Cl)c(O)c(CN(Cc3ccccn3)Cc3ccccn3)c2Oc2c1cc(Cl)c(O)c2CN(Cc1ccccn1)Cc1ccccn1 [ZP1-TPP]	Endo/lysosome	did not respond significantly to changing intracellular zinc levels	−0.11 ± 0.01			
CC(=O)Oc1c(Cl)cc2c(c1CN(Cc1ccccn1)Cc1ccccn1)Oc1c(cc(Cl)c(OC(C)=O)c1CN(Cc1ccccn1)Cc1ccccn1)C21OC(=O)c2ccc(C(=O)NCC[P+](c3ccccc3)(c3ccccc3)c3ccccc3)cc21 [DA-ZP1-TPP]	Mitochondria		0.74±0.18	~12.1 fold and ~12 fold	2 h	~2.4 fold
